The results in this text go back to patent US10131679B2, “Substituted dihydropyrrolopyrazole compound” (UBE INDUSTRIES, LTD., priority 2014, dated 2018).

Each structure is given as a SMILES string. Bounds are passed on as bounds.

The subject of one experiment is IL-17 production in human PBMC-derived T cells. Description: Human PBMC various-stimulant cocktail-induced IL-17 production inhibition test. In kind it is cell-based. The following applies: 120 h; human T-cell suspension from PBMC, cocktail of various stimulants, incubation for 5 days, ELISA. From the text:
Human PBMC Various-Stimulant Cocktail-Induced IL-17 Production Inhibition Test
PBMC was separated and collected by using Ficoll-Paque (17-1440-02 manufactured by GE Healthcare Japan Corp.) from blood collected from healthy human adult in the presence of heparin. The collected PBMC was further cultured in a flask for a certain time, and then, non-adherent cells in the supernatant were collected and used as a T-cell suspension. RPMI1640 medium (manufactured by GIBCO/Thermo Fisher Scientific, Inc., REF. 11875), which is containing 10% FBS (manufactured by GIBCO/Thermo Fisher Scientific, Inc., REF. 10082), 1% penicillin/streptomycin/amphotericin B (manufactured by GIBCO/Thermo Fisher Scientific, Inc., REF. 15240-096), 1% nonessential amino acids (manufactured by GIBCO/Thermo Fisher Scientific, Inc., REF. 11140-050), and 1% pyruvic acid (manufactured by GIBCO/Thermo Fisher Scientific, Inc., REF. 11140) and containing a test compound dissolved in DMSO, 2 μg/mL (final concentration) CD28 antibody (manufactured by BioLegend, Inc., Cat. No. 302914), 10 μg/mL (final concentration) human IFN-γ antibody (manufactured by BD Biosciences, Cat. No. 554698), 10 μg/mL (final concentration) human IL-4 antibody (manufactured by BD Biosciences, Cat. No. 554481), 20 ng/mL (final concentration) human IL-6 (manufactured by BioLegend, Inc., Cat. No. 570802), 10 ng/mL (final concentration) human IL-23 (manufactured by BioLegend, Inc., Cat. No. 574102), 10 ng/mL (final concentration) human IL-1(3 (manufactured by PeproTech Inc., Cat. No. 200-01B), and 10 ng/mL (final concentration) human TGF-13 (manufactured by BioLegend, Inc., Cat. No. 580702), was added at 100 μL/well to T cell Activation Plate Anti-Human CD3 96-well plate (manufactured by Corning Inc., REF. 354725). Subsequently, 100 μL of a T-cell suspension adjusted to 2×10^5 cells/mL was added to each well (final DMSO concentration: 0.1%). Only DMSO was added to wells in the absence of the test compound. After incubation for 5 days in a carbon dioxide incubator, the culture supernatant was collected and stored at −20° C. until IL-17 content measurement.
In the IL-17 content measurement in the culture supernatant, a sandwich ELISA kit (Quantikine Human IL-17, manufactured by R&D Systems, Inc.) was used. The IL-17 content of each sample was calculated from the calibration curve of Standard IL-17 included in the kit. When the amount of IL-17 produced by the cocktail of various stimulants in the case of the addition of only DMSO was defined as 100%, the rate of inhibition of IL-17 production at each concentration of the test compound was calculated. The concentration of the test compound necessary for inhibiting 50% of IL-17 production (IC50 value) was calculated from the concentration of the added test compound and the rate of inhibition of IL-17 production by the test compound by using EXSUS (version 8.0.0 or version 8.0.1, manufactured by CAC Exicare Corp.).
Background: In an ELISA, binding on a coated surface is turned into a signal by an enzyme label.
One may read the IC50 as the point on the concentration scale where inhibition reaches its midpoint. Low values mean greater potency in that assay, high ones weaker potency in that assay. As for `CC[Si](C)(C)C1(C(=O)Nc2n[nH]c3c2CN(C(=O)[C@H](OC)c2ccccc2)C3(C)C)CCC1` [IV-1178, (R)-1-(Ethyldimethylsilyl)-N-[5-(2-methoxy-2-phenylacetyl)-6,6-dimethyl-1,4,5,6-tetrahydropyrrolo[3,4-c]pyrazol-3-yl] cyclobutanecarboxamide], the half-inhibitory concentration (IC50) was not above 0.05 µM.

Regarding `CCCO[C@@H](C(=O)N1Cc2c(NC(=O)C3([Si](C)(C)C)CCC3)n[nH]c2C1(C)C)c1ccccc1` [IV-1196, (R)—N-[6,6-Dimethyl-5-(2-phenyl-2-propoxyacetyl)-1,4,5,6-tetrahydropyrrolo[3,4-c]pyrazol-3-yl]-1-(trimethylsilyl)cyclobutanecarboxamide], the 50% inhibitory concentration (IC50) is not above 0.05 µM.

`CC1(C)c2[nH]nc(NC(=O)C3([Si](C)(C)C)CCC3)c2CN1C(=O)[C@H](OC1CC1)c1ccccc1` [IV-1208, (R)—N-[5-(2-Cyclopropoxy-2-phenylacetyl)-6,6-dimethyl-1,4,5,6-tetrahydropyrrolo[3,4-c]pyrazol-3-yl]-1-(trimethylsilyl)cyclobutanecarboxamide] returned a half-inhibitory concentration (IC50) not above 0.05 µM.

In turn, `CC(C)O[C@@H](C(=O)N1Cc2c(NC(=O)C3([Si](C)(C)C)CCC3)n[nH]c2C1(C)C)c1ccccc1` [IV-1204, (R)—N-[5-(2-Isopropoxy-2-phenylacetyl)-6,6-dimethyl-1,4,5,6-tetrahydropyrrolo[3,4-c]pyrazol-3-yl]-1-(trimethylsilyl)cyclobutanecarboxamide] came in with an IC50 not above 0.05 µM.

In the case of `CO[C@@H](C(=O)N1Cc2c(NC(=O)C3([Si](C)(C)C)CCC3)n[nH]c2C1(C)C)c1ccccc1` [IV-1175, (R)—N-[5-(2-Methoxy-2-phenylacetyl)-6,6-dimethyl-1,4,5,6-tetrahydropyrrolo[3,4-c]pyrazol-3-yl]-1-(trimethylsilyl)cyclobutanecarboxamide], the IC50 was not above 0.05 µM.

`CC(C)(CO)C(NC(=O)N1Cc2c(NC(=O)C3([Si](C)(C)C)CCC3)n[nH]c2C1(C)C)c1ccccc1` (single isomer, unassigned; (-)) [IV-673, (−)-N-(3-Hydroxy-2,2-dimethyl-1-phenylpropyl)-6,6-dimethyl-3-[1-(trimethylsilyl)cyclobutanecarboxamido]-4,6-dihydropyrrolo[3,4-c]pyrazole-5(1H)-carboxamide] gave an IC50 not above 0.05 µM.

As for `CC1(C)c2[nH]nc(NC(=O)C3([Si](C)(C)C)CCC3)c2CN1C(=O)NC(c1ccccc1)C1(CO)CCC1` (centres unmarked) [IV-718, N-{[1-(Hydroxymethyl)cyclobutyl](phenyl)methyl}-6,6-dimethyl-3-[1-(trimethylsilyl)cyclobutanecarboxamido]-4,6-dihydropyrrolo[3,4-c]pyrazole-5(1H)-carboxamide], the IC50 was not above 0.05 µM.

`CC(C)(O)C[C@@H](NC(=O)N1Cc2c(NC(=O)C3([Si](C)(C)C)CCC3)n[nH]c2C1(C)C)c1cccc(F)c1` [IV-911, (R)—N-[1-(3-Fluorophenyl)-3-hydroxy-3-methylbutyl]-6,6-dimethyl-3-[1-(trimethylsilyl)cyclobutanecarboxamido]-4,6-dihydropyrrolo[3,4-c]pyrazole-5(1H)-carboxamide] displayed a half-maximal inhibitory concentration (IC50) not above 0.05 µM.

Take `CO[C@@H](C(=O)N1Cc2c(NC(=O)C3([Si](C)(C)C)CCC3)n[nH]c2C1(C)C)c1ccccc1F` [IV-1383, (R)—N-{5-[2-(2-Fluorophenyl)-2-methoxyacetyl]-6,6-dimethyl-1,4,5,6-tetrahydropyrrolo[3,4-c]pyrazol-3-yl}-1-(trimethylsilyl)cyclobutanecarboxamide]: the concentration for half-maximal inhibition (IC50) was not above 0.05 µM.

As for `CC(C)(O)C[C@@H](NC(=O)N1Cc2c(NC(=O)C3([Si](C)(C)C)CCC3)n[nH]c2C1(C)C)c1ccc(F)cc1` [IV-939, (R)—N-[1-(4-Fluorophenyl)-3-hydroxy-3-methylbutyl]-6,6-dimethyl-3-[1-(trimethylsilyl)cyclobutanecarboxamido]-4,6-dihydropyrrolo[3,4-c]pyrazole-5(1H)-carboxamide], the IC50 is not above 0.05 µM.

For the compound `CC(C)(CO)C(NC(=O)N1Cc2c(NC(=O)C3([Si](C)(C)C)CCC3)n[nH]c2C1(C)C)c1ccc(F)cc1` (centres unmarked) [IV-946, N-[1-(4-Fluorophenyl)-3-hydroxy-2,2-dimethylpropyl]-6,6-dimethyl-3-[1-(trimethylsilyl)cyclobutanecarboxamido]-4,6-dihydropyrrolo[3,4-c]pyrazole-5(1H)-carboxamide], the IC50 was not above 0.05 µM.

`CCO[C@@H](C(=O)N1Cc2c(NC(=O)C3([Si](C)(C)C)CCC3)n[nH]c2C1(C)C)c1ccccc1` [IV-1188, (R)—N-[5-(2-Ethoxy-2-phenylacetyl)-6,6-dimethyl-1,4,5,6-tetrahydropyrrolo[3,4-c]pyrazol-3-yl]-1-(trimethylsilyl)cyclobutanecarboxamide] had an IC50 not above 0.05 µM.

In the case of `COC(C(=O)N1Cc2c(NC(=O)C3([Si](C)(C)C)CCC3)n[nH]c2C1(C)C)c1cccs1` (centres unmarked) [IV-1546, N-{5-[2-Methoxy-2-(thiophen-2-yl)acetyl]-6,6-dimethyl-1,4,5,6-tetrahydropyrrolo[3,4-c]pyrazol-3-yl}-1-(trimethylsilyl)cyclobutanecarboxamide], the IC50 is not above 0.05 µM.

`COC(C(=O)N1Cc2c(NC(=O)C3([Si](C)(C)C)CCC3)n[nH]c2C1(C)C)c1cccc(F)c1` (centres unmarked) [IV-1404, N-{5-[2-(3-Fluorophenyl)-2-methoxyacetyl]-6,6-dimethyl-1,4,5,6-tetrahydropyrrolo[3,4-c]pyrazol-3-yl}-1-(trimethylsilyl)cyclobutanecarboxamide] gave a half-inhibitory concentration (IC50) not above 0.05 µM.

Turning to `CC1(C)c2[nH]nc(NC(=O)C3([Si](C)(C)C)CCC3)c2CN1C(=O)[C@H](OC(F)(F)F)c1ccccc1` [IV-1184, (R)—N-{6,6-Dimethyl-5-[2-phenyl-2-(trifluoromethoxy)acetyl]-1,4,5,6-tetrahydropyrrolo[3,4-c]pyrazol-3-yl}-1-(trimethylsilyl)cyclobutanecarboxamide], the IC50 was not above 0.05 µM.

For the compound `CC(C)(CO)C(NC(=O)N1Cc2c(NC(=O)C3([Si](C)(C)C)CCC3)n[nH]c2C1(C)C)c1cccc(F)c1` (centres unmarked) [IV-918, N-[1-(3-Fluorophenyl)-3-hydroxy-2,2-dimethylpropyl]-6,6-dimethyl-3-[1-(trimethylsilyl)cyclobutanecarboxamido]-4,6-dihydropyrrolo[3,4-c]pyrazole-5(1H)-carboxamide], the IC50 was not above 0.05 µM.

`CC1(C)c2[nH]nc(NC(=O)C3([Si](C)(C)C)CCC3)c2CN1C(=O)N[C@H](CC1(O)CC1)c1ccccc1` [IV-743, (R)—N-[2-(1-Hydroxycyclopropyl)-1-phenylethyl]-6,6-dimethyl-3-[1-(trimethylsilyl)cyclobutanecarboxamido]-4,6-dihydropyrrolo[3,4-c]pyrazole-5(1H)-carboxamide] had an IC50 not above 0.05 µM.

In the next experiment the test system is Human keratinocytes (NHEK-Neo Pooled). Put plainly: Human keratinocyte growth inhibition assay. In kind it is cell-based. The following applies: 48 h, culture for 2 days, Cell Counting Kit-8. How it is done:
Human Keratinocyte Growth Inhibition Assay
The measurement of a human keratinocyte growth inhibitory effect was carried out by modifying the method of Schafer et al. (British Journal of Pharmacology, 159, 842 (2011)).
Human keratinocytes (NHEK-Neo Pooled, manufactured by Lonza Group AG, Cat. No. 00192906) were cultured in KGM-Gold Bullet Kit (manufactured by Lonza Group AG, Cat. No. 00192060) and inoculated at 2.0×10^3 cells/well to a 96-well plate. After overnight culture in a carbon dioxide incubator, a test compound dissolved in DMSO (final DMSO concentration: 0.1%) was added and left standing in a carbon dioxide incubator. After culture for 2 days, the absorbance thereof was measured by using Cell Counting Kit-8 (343-07623 manufactured by Dojindo Laboratories)).
The rate of inhibition of cell growth at each concentration was calculated from the test compound concentration and the absorbance of Cell Counting Kit-8, and the concentration of the test compound necessary for inhibiting 50% of cell growth (IC50 value) was calculated by using EXSUS (version 8.0.0 or version 8.0.1, manufactured by CAC Exicare Corp.).
For orientation: Formazan colour is commonly taken as a measure of viable cells.
As to `CC[Si](C)(C)C1(C(=O)Nc2n[nH]c3c2CN(C(=O)[C@H](OC)c2ccccc2)C3(C)C)CCC1` [IV-1178, (R)-1-(Ethyldimethylsilyl)-N-[5-(2-methoxy-2-phenylacetyl)-6,6-dimethyl-1,4,5,6-tetrahydropyrrolo[3,4-c]pyrazol-3-yl] cyclobutanecarboxamide], the IC50 was not above 0.5 µM.

Compound `CO[C@@H](C(=O)N1Cc2c(NC(=O)C3([Si](C)(C)C)CCC3)n[nH]c2C1(C)C)c1ccccc1` [IV-1175, (R)—N-[5-(2-Methoxy-2-phenylacetyl)-6,6-dimethyl-1,4,5,6-tetrahydropyrrolo[3,4-c]pyrazol-3-yl]-1-(trimethylsilyl)cyclobutanecarboxamide] yielded an IC50 not above 0.5 µM.

In turn, `CCO[C@@H](C(=O)N1Cc2c(NC(=O)C3([Si](C)(C)C)CCC3)n[nH]c2C1(C)C)c1ccccc1` [IV-1188, (R)—N-[5-(2-Ethoxy-2-phenylacetyl)-6,6-dimethyl-1,4,5,6-tetrahydropyrrolo[3,4-c]pyrazol-3-yl]-1-(trimethylsilyl)cyclobutanecarboxamide] displayed a half-inhibitory concentration (IC50) not above 0.5 µM.
